Reference: ChEMBL document CHEMBL4433199, “First-in-class allosteric inhibitors of bacterial IMPDHs” (Eur J Med Chem, 2019)
Active and inactive are the calls of the source. The calls are words filed in the database; no cut-off is given here.

Tests used:
[1] = molecular target: T1, Inosine-5'-monophosphate dehydrogenase (Pseudomonas aeruginosa (strain ATCC 15692 / DSM 22644 / CIP 104116 / JCM14847 / LMG 12228 / 1C / PRS 101 / PAO1), UniProt Q9HXM5); experiment: Inhibition of Pseudomonas aeruginosa IMPDH using IMP as substrate in the presence of NAD+ incubated for 70 secs
T1 sequence (Q9HXM5 whole entry): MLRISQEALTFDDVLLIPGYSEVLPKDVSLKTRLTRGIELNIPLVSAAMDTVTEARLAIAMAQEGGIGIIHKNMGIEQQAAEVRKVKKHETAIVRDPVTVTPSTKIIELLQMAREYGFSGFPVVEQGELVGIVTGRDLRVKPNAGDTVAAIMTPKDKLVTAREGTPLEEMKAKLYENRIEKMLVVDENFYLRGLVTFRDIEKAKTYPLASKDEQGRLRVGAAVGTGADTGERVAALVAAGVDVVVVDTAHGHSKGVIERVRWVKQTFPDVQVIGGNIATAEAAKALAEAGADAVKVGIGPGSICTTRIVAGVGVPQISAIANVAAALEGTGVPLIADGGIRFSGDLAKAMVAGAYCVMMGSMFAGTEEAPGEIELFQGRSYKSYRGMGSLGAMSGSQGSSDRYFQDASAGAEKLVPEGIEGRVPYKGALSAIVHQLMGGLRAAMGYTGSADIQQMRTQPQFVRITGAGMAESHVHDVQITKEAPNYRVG

[2] = molecular target: T2, Inosine-5'-monophosphate dehydrogenase (Pseudomonas aeruginosa (strain ATCC 15692 / DSM 22644 / CIP 104116 / JCM14847 / LMG 12228 / 1C / PRS 101 / PAO1)) (UniProt Q9HXM5); experiment: Inhibition of Pseudomonas aeruginosa IMPDH at 41.5 uM using IMP as substrate in the presence of NAD+ incubated for 70 secs relative to control
T2 sequence (whole entry): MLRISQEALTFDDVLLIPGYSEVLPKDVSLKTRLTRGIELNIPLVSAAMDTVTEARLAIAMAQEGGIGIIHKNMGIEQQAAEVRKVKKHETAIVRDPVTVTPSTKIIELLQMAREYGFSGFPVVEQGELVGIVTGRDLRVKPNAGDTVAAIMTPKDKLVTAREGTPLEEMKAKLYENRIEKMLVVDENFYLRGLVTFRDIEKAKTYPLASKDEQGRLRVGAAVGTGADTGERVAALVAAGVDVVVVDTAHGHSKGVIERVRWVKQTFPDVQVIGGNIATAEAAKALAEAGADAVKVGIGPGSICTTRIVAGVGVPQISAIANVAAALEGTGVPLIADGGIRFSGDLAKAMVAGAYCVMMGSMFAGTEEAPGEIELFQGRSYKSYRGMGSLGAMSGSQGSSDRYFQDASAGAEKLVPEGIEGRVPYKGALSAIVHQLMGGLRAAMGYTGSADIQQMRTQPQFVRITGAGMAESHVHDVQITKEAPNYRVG

[3] = molecular target: T2, Inosine-5'-monophosphate dehydrogenase (Pseudomonas aeruginosa (strain ATCC 15692 / DSM 22644 / CIP 104116 / JCM14847 / LMG 12228 / 1C / PRS 101 / PAO1)); experiment: Competitive inhibition of Pseudomonas aeruginosa IMPDH using IMP as substrate and NAD+ in presence of varying ATP incubated for 70 secs
[4] = molecular target: T2, Inosine-5'-monophosphate dehydrogenase (Pseudomonas aeruginosa (strain ATCC 15692 / DSM 22644 / CIP 104116 / JCM14847 / LMG 12228 / 1C / PRS 101 / PAO1)); experiment: Inhibition of Pseudomonas aeruginosa IMPDH at 39.6 uM using IMP as substrate in the presence of NAD+ incubated for 70 secs relative to control
[5] = molecular target: T2, Inosine-5'-monophosphate dehydrogenase (Pseudomonas aeruginosa (strain ATCC 15692 / DSM 22644 / CIP 104116 / JCM14847 / LMG 12228 / 1C / PRS 101 / PAO1)); experiment: Inhibition of Pseudomonas aeruginosa IMPDH at 49.8 uM using IMP as substrate in the presence of NAD+ incubated for 70 secs relative to control
[6] = molecular target: T2, Inosine-5'-monophosphate dehydrogenase (Pseudomonas aeruginosa (strain ATCC 15692 / DSM 22644 / CIP 104116 / JCM14847 / LMG 12228 / 1C / PRS 101 / PAO1)); experiment: Inhibition of Pseudomonas aeruginosa IMPDH at 40.7 uM using IMP as substrate in the presence of NAD+ incubated for 70 secs relative to control
[7] = molecular target: T2, Inosine-5'-monophosphate dehydrogenase (Pseudomonas aeruginosa (strain ATCC 15692 / DSM 22644 / CIP 104116 / JCM14847 / LMG 12228 / 1C / PRS 101 / PAO1)); experiment: Inhibition of Pseudomonas aeruginosa IMPDH assessed as Km for IMP at 10 uM using IMP as substrate in presence of 2 mM NAD+ and 0.2 mM MgATP (reference value: 483 +/- 65 microM)
[8] = molecular target: T2, Inosine-5'-monophosphate dehydrogenase (Pseudomonas aeruginosa (strain ATCC 15692 / DSM 22644 / CIP 104116 / JCM14847 / LMG 12228 / 1C / PRS 101 / PAO1)); experiment: Inhibition of Pseudomonas aeruginosa IMPDH at 55.6 uM using IMP as substrate in the presence of NAD+ incubated for 70 secs relative to control
[9] = molecular target: T2, Inosine-5'-monophosphate dehydrogenase (Pseudomonas aeruginosa (strain ATCC 15692 / DSM 22644 / CIP 104116 / JCM14847 / LMG 12228 / 1C / PRS 101 / PAO1)); experiment: Inhibition of Pseudomonas aeruginosa IMPDH at 47.1 uM using IMP as substrate in the presence of NAD+ incubated for 70 secs relative to control
[10] = molecular target: T2, Inosine-5'-monophosphate dehydrogenase (Pseudomonas aeruginosa (strain ATCC 15692 / DSM 22644 / CIP 104116 / JCM14847 / LMG 12228 / 1C / PRS 101 / PAO1)); experiment: Inhibition of Pseudomonas aeruginosa IMPDH at 43.4 uM using IMP as substrate in the presence of NAD+ incubated for 70 secs relative to control
[11] = molecular target: T2, Inosine-5'-monophosphate dehydrogenase (Pseudomonas aeruginosa (strain ATCC 15692 / DSM 22644 / CIP 104116 / JCM14847 / LMG 12228 / 1C / PRS 101 / PAO1)); experiment: Non-competitive inhibition of Pseudomonas aeruginosa IMPDH using IMP as substrate and NAD+ in presence of ATP incubated for 70 secs
[12] = molecular target: T2, Inosine-5'-monophosphate dehydrogenase (Pseudomonas aeruginosa (strain ATCC 15692 / DSM 22644 / CIP 104116 / JCM14847 / LMG 12228 / 1C / PRS 101 / PAO1)); experiment: Inhibition of Pseudomonas aeruginosa IMPDH at 38.5 uM using IMP as substrate in the presence of NAD+ incubated for 70 secs relative to control
[13] = molecular target: T2, Inosine-5'-monophosphate dehydrogenase (Pseudomonas aeruginosa (strain ATCC 15692 / DSM 22644 / CIP 104116 / JCM14847 / LMG 12228 / 1C / PRS 101 / PAO1)); experiment: Inhibition of Pseudomonas aeruginosa IMPDH at 40 uM using IMP as substrate in the presence of NAD+ incubated for 70 secs relative to control
[14] = molecular target: T2, Inosine-5'-monophosphate dehydrogenase (Pseudomonas aeruginosa (strain ATCC 15692 / DSM 22644 / CIP 104116 / JCM14847 / LMG 12228 / 1C / PRS 101 / PAO1)); experiment: Inhibition of Pseudomonas aeruginosa IMPDH at 55.9 uM using IMP as substrate in the presence of NAD+ incubated for 70 secs relative to control
[15] = molecular target: T2, Inosine-5'-monophosphate dehydrogenase (Pseudomonas aeruginosa (strain ATCC 15692 / DSM 22644 / CIP 104116 / JCM14847 / LMG 12228 / 1C / PRS 101 / PAO1)); experiment: Inhibition of Pseudomonas aeruginosa IMPDH assessed as Km for IMP at 20 uM using IMP as substrate in presence of 2 mM NAD+ and 0.2 mM MgATP (reference value: 483 +/- 65 microM)
[16] = molecular target: T2, Inosine-5'-monophosphate dehydrogenase (Pseudomonas aeruginosa (strain ATCC 15692 / DSM 22644 / CIP 104116 / JCM14847 / LMG 12228 / 1C / PRS 101 / PAO1)); experiment: Inhibition of Pseudomonas aeruginosa IMPDH at 46.2 uM using IMP as substrate in the presence of NAD+ incubated for 70 secs relative to control
[17] = compound: CCOc1ccc(-c2cc(C(=O)O)nc3[nH]nc(-c4ccc(Cl)cc4)c23)cc1; experiment: (§1) Inhibition of Pseudomonas aeruginosa IMPDH assessed as Vmax for IMP at 20 uM using IMP as substrate in presence of 2 mM NAD+ and 0.2 mM MgATP (reference value: 3.74 +/- 0.22 U/mg)
[18] = compound: CC(=O)N1CCOc2cc(S(=O)(=O)Nc3ccc(F)c(Cl)c3)ccc21; experiment: as §1
[19] = compound: N#CC1=C(N)Oc2[nH]c(=O)[nH]c(=O)c2C1c1ccc([N+](=O)[O-])cc1; experiment: (§2) Inhibition of Pseudomonas aeruginosa IMPDH assessed as Vmax for IMP at 10 uM using IMP as substrate in presence of 2 mM NAD+ and 0.2 mM MgATP (reference value: 3.74 +/- 0.22 U/mg)
[20] = compound: CC(=O)Nc1ccc(C2C3=C(Nc4c2c(=O)[nH]c(=O)n4Cc2ccccc2)c2ccccc2C3=O)cc1; experiment: as §2

What does the source list for `COc1ccc(Br)cc1-c1cc(C(=O)O)nc2[nH]nc(-c3ccc(C)cc3)c12`?
IC50 ([1]; read-out: IC50): 11.7 µM; inhibition [2]: 79.9%; inhibition [3]: Active

Which IC50 ([1]; read-out: IC50) does the source give for `COc1ccc(-c2cc(C(=O)O)nc3[nH]nc(-c4ccc(C)cc4)c23)cc1Br` here?
Its IC50 is 11.7 µM.

What about the inhibition [3] of the same molecule?
The inhibition was “Active”.

And the inhibition [4]?
The inhibition was 83.1%.

What does the source list for `COc1ccc(-n2c(=O)[nH]cc(C(=O)Nc3cc(C)ccc3C)c2=O)cc1`?
IC50 [1]: Not Active; inhibition [5]: 108%

How did the inhibition [6] turn out when `O=C(O)c1cc(-c2cc(Br)ccc2F)c2c(-c3ccc(Cl)cc3)n[nH]c2n1` was run?
Its inhibition is 71.6%.

What about the IC50 ([1]; read-out: IC50) of the same molecule?
The IC50 was 7.4 µM.

What about the inhibition [3] of the same molecule?
Its inhibition is “Active”.

Which results are given for `N#CC1=C(N)Oc2[nH]c(=O)[nH]c(=O)c2C1c1ccc([N+](=O)[O-])cc1` (stereo not drawn)?
K0.5 [7]: 691 µM; inhibition [8]: 87.8%; IC50 ([1]; read-out: IC50): 7 µM; inhibition [3]: Active

`CC(=O)Nc1ccc(-c2cc(C(=O)O)nc3[nH]nc(-c4ccc(C)cc4)c23)cc1` was tested. Which IC50 ([1]; read-out: IC50) did it give?
The IC50 was 23 µM.

What about the inhibition [3] of the same molecule?
The inhibition was “Active”.

What about the inhibition [9] of the same molecule?
The inhibition was 78.3%.

Which IC50 ([1]; read-out: IC50) does the source give for `O=C(CCS(=O)(=O)c1ccc2c(c1)SCC(=O)N2)NCCCc1ccccc1` here?
The IC50 was 3.1 µM.

And the inhibition [10]?
The inhibition was 76.7%.

And the inhibition [11]?
The inhibition was “Active”.

With `COc1ccc(CCNc2nc3cc(Cl)c(Cl)cc3nc2-n2nc(C)cc2C)cc1OC` as the molecule, how does the inhibition [12] read?
The inhibition was 77.8%.

What about the inhibition [13] of the same molecule?
The inhibition was 20%.

With `COc1cccc(CNC(=O)Cn2ncc3ccccc32)c1OC` as the molecule, how does the IC50 [1] read?
The IC50 was “Not Active”.

What about the inhibition [14] of the same molecule?
The inhibition was 95.2%.

With `CCOc1ccc(-c2cc(C(=O)O)nc3[nH]nc(-c4ccc(Cl)cc4)c23)cc1` as the molecule, how does the K0.5 [15] read?
The K0.5 was 616 µM.

What about the IC50 ([1]; read-out: IC50) of the same molecule?
The IC50 was 18.3 µM.

What about the inhibition [3] of the same molecule?
The inhibition was “Active”.

And the inhibition [16]?
The inhibition was 73%.

B1: Inosine-5'-monophosphate dehydrogenase (Pseudomonas aeruginosa (strain ATCC 15692 / DSM 22644 / CIP 104116 / JCM14847 / LMG 12228 / 1C / PRS 101 / PAO1)), … (protein)
chain: MLRISQEALTFDDVLLIPGYSEVLPKDVSLKTRLTRGIELNIPLVSAAMDTVTEARLAIAMAQEGGIGIIHKNMGIEQQAAEVRKVKKHETAIVRDPVTVTPSTKIIELLQMAREYGFSGFPVVEQGELVGIVTGRDLRVKPNAGDTVAAIMTPKDKLVTAREGTPLEEMKAKLYENRIEKMLVVDENFYLRGLVTFRDIEKAKTYPLASKDEQGRLRVGAAVGTGADTGERVAALVAAGVDVVVVDTAHGHSKGVIERVRWVKQTFPDVQVIGGNIATAEAAKALAEAGADAVKVGIGPGSICTTRIVAGVGVPQISAIANVAAALEGTGVPLIADGGIRFSGDLAKAMVAGAYCVMMGSMFAGTEEAPGEIELFQGRSYKSYRGMGSLGAMSGSQGSSDRYFQDASAGAEKLVPEGIEGRVPYKGALSAIVHQLMGGLRAAMGYTGSADIQQMRTQPQFVRITGAGMAESHVHDVQITKEAPNYRVG
Which results are given for B1?
Vmax [17]: 3.14 U/mg; Vmax [18]: 2.81 U/mg; Vmax [19]: 3.64 U/mg; Vmax [20]: 3.34 U/mg
